Measured values reported in patent US10564164B2, “Fluorescent probe, singlet oxygen detection agent, and singlet oxygen detection method” (Osaka University, priority 2014, dated 2020).
Read-outs that look alike come from different tables or passages of the source.

Columns and labels:
[1] = Time-resolved phosphorimetry (singlet oxygen generation quantum yield); type: physicochemical; conditions: 250 μM in DMSO and methanol (1:9); 532 nm excitation
Procedure: A sample of Rose Bengal and the Si-Me of Comparative Example 1 was prepared in a DMSO and methanol (1:9) solution placed in a 1×1×4 cm^3 quartz cell (the concentration of Rose Bengal=21.5 μM, and the concentration of Si-Me=250 μM).
Second harmonic oscillation (532 nm, 4 nsfwhm, 5.0 mJ·cm^−2 pulse^−1) generated by a Q-switched Nd YAG laser (Surelite II-10, Continuum) was used as an excitation light. The light-induced luminescence of the sample cell was condensed on a quartz lens via a monochromator, and subsequently introduced into a near-infrared photomultiplier tube module (H10330A-75; Hamamatsu Photonics K.K.).
After the amplification using a 350-MHz amplifier unit (SR445A; Stanford Research Systems), the output of the photomultiplier tube was sent to a gated photon counter (SR400; Stanford Research Systems) under direct PC control via a GPIB interface. In order to measure the lifetime of ^1O2, measurement was performed by changing the delay time between 0 to 50 μseconds at a gate width of 1.0 μsecond, and accumulating the results (repeated 5 times).

[2] = cited from earlier work
[3] = tested on: HeLa cells; test: Selectivity of photosensitizer: intracellular singlet oxygen detection with Si-DMA; type: cell-based; conditions: HeLa cells, Si-DMA probe; 60-second light irradiation; photosensitizer as labelled
Procedure: Subsequently, a quick protocol provided by Molecular Probe® for introducing CellROX Green was followed. Using diluted Si-DMA and Si-Me, incubation was performed for 30 minutes to two hours by an experiment. To introduce a photosensitizer, 150 μg/mL of 5-aminolevulinic acid (5-ALA) or 10 LM TMPyP4 were incubated for four hours and 24 hours, respectively. As a result, as previously reported, the conversion of 5-ALA into protoporphyrin IX (PpIX) in the mitochondria was confirmed by the fluorescence luminescence of PpIX.
A KillerRed vector was expressed in accordance with a general Lipofectamine® 2000 (Invitrogen) protocol. More specifically, 2×10^5 Hela cells were subcultured in a 35-mm glass bottom dish. The cells reached about 50% confluent in the next day.
Subsequently, a mixed solution of Lipofectamine reagent and DNA vector was obtained by mixing 6 μL Lipofectamine® 2000 with 7 μL pKillerRed-dMitovector ([…], Evrogen, catalog No. FP964) in an Opti-MEM solution (Gibco). Thereafter, the resulting solution was incubated for 20 minutes at room temperature. 300 μL of the mixed solution was added to a growth medium, and incubated for 24 hours. The expression of KillerRed was confirmed by monitoring KillerRed fluorescence using a wide-view microscope. […]
Further, on the night before the treatment, 0.2×10^6 HeLa cells were seeded on a 35-mm dish, and pKillerRed-dMito vector (Evrogen) was introduced using Lipofectaimine®2000 (Invitrogen®), followed by 24-hour incubation as described above, thereby preparing HeLa cells containing […]. […] Light irradiation was performed for 30 seconds simultaneously at 0.5 W/cm^2 and 0.6 W/cm^2 using a 640-/532-nm laser (Coherent) and a wide-view fluorescence microscope system mounted in an IX81 inverted microscope (Olympus Corporation). […]
Further, in this Experiment Example, 60-second light irradiation was performed using three kinds of photosensitizers, and an average number of pseudo colors appeared in the photo and an increase thereof were measured. […]

## Cc1ccccc1C1=C2C=CC(=[N+](C)C)C=C2[Si](C)(C)c2cc(N(C)C)ccc21 [Si-Me]
[1]
  ΦΔ (singlet oxygen generation quantum yield): about 0.02

## O=C([O-])c1c(Cl)c(Cl)c(Cl)c(Cl)c1-c1c2cc(I)c(=O)c(I)c-2oc2c(I)c([O-])c(I)cc12.[Na+].[Na+] [Rose Bengal]
[2]; in methanol, reference value
  ΦΔ (singlet oxygen generation quantum yield): 0.76

## C[n+]1ccc(-c2c3nc(c(-c4cc[n+](C)cc4)c4ccc([nH]4)c(-c4cc[n+](C)cc4)c4nc(c(-c5cc[n+](C)cc5)c5ccc2[nH]5)C=C4)C=C3)cc1 [TMPyP4, tetra-(N-methyl-4-pyridyl)porphyrin, reference compound]
[3]
  average number of pseudo colors during light irradiation (Si-DMA fluorescence): decreased

## O=C1OC2(c3cc(Cl)c(O)cc3Oc3cc(O)c(Cl)cc32)c2ccccc21 [2,7-dichlorofluorescein]
[2]; comparison value for SOSG chromophore
  ΦΔ (singlet oxygen generation quantum yield): 0.06
